Entries after “also recorded” stand apart in the source; their conditions may differ.
What was measured:
α-toxin [1] = target: T1, α-toxin (Staphylococcus aureus, UniProt P09616); conditions: cited from earlier work
α-toxin [2] = target: T1, α-toxin; assay type: cell-based
S. aureus strain 8325-4 = experiment: Experimental keratitis in rabbits, S. aureus strain 8325-4, topical treatment; assay type: in vivo, Staphylococcus aureus; conditions: rabbit eyes
Procedure: FIG. 4 is a set of graphs that show the effect of CD-cholesterol treatment of eyes infected with strain 8325-4. Rabbit corneas were injected with 10^2 CFU of S. aureus 8325-4. Eyes were randomized and treated with 1% CD-cholesterol, 1% CD, or PBS from 7 to 13 hours PI. At 7 hours PI, eyes were treated with a single topical drop every 15 minutes from 7 to 8 hours PI. At 8.5 hours PI, eyes were treated with a single topical drop every 30 minutes until 13 hours PI (a total of 15 drops). At 13 hours PI, the eyes were evaluated by SLE (A) and erosion diameters were measured using fluorescein strips (B) The pathologic changes were observed then averaged and statistical comparisons were performed using one-way ANOVA. The erosions were averaged and statistical comparisons using analysis of variance and Student's t-test were performed. Error bars are the standard error of the mean (SEM). P≦0.05, for either test, was considered significant. […] The eyes treated with 1% CD or with PBS had statistically similar SLE scores (P=0.4002). […] The eyes treated with 1% CD-cholesterol or 1% CD had erosion diameters similar to one another (P=0.4002).
(§1) Rabbits (n≧4 eyes per group) were infected as previously described, injecting approximately 100 colony forming units (CFU) of strain 8325-4 or strain 60171, a clinical isolate, in 10 μL of TSB into the stroma of the cornea. Accuracy of the inoculum size was verified by plating aliquots (100 μL) of serial dilutions in triplicate on TSA.
At 7 hours postinfection (PI), treatment began and consisted of a single topical drop of PBS, 1% CD, or 1% CD-cholesterol every 15 minutes from 7 to 8 hours PI. Then, beginning at 8.5 hours PI, a single drop was administered every 30 minutes until 13 hours PI; a total of 15 drops per eye. At 13 hours PI, corneal erosions were measured and all eyes underwent slit lamp examination (SLE) to quantify pathologic changes. […]
Corneas of rabbits infected with either S. aureus 8325-4 or 60171 were harvested at 14 hours PI and bacteria were quantified as described previously. […]

S. aureus strain 60171 = experiment: Experimental keratitis in rabbits, S. aureus clinical isolate 60171, topical treatment; assay type: in vivo, Staphylococcus aureus; conditions: rabbit eyes
Procedure: FIG. 5 is a set of graphs that show the effect of CD-cholesterol treatment of eyes infected with strain 60171. Eyes were treated and evaluated as described for FIG. 3. Error bars are the SEM. […] In contrast, the CD-treated eyes had similar SLE scores compared to the PBS-treated eyes (P=0.7403). […] There was no statistical difference between the eyes treated with 1% CD and the eyes treated with PBS (P=0.2131).
as §1
At 7 hours postinfection (PI), treatment began and consisted of a single topical drop of PBS, 1% CD, or 1% CD-cholesterol every 15 minutes from 7 to 8 hours PI. Then, beginning at 8.5 hours PI, a single drop was administered every 30 minutes until 13 hours PI; a total of 15 drops per eye. At 13 hours PI, corneal erosions were measured and all eyes underwent slit lamp examination (SLE) to quantify pathologic changes.
SLE of pathologic changes of rabbit eyes was performed by two masked observers as described previously.
Corneas of rabbits infected with either S. aureus 8325-4 or 60171 were harvested at 14 hours PI and bacteria were quantified as described previously.
These finding raised the possibility that CD-cholesterol could treat corneas infected with S. aureus. Rabbit corneas were injected with either S. aureus strain 8325-4 or S. aureus clinical isolate 60171. Rabbit eyes were treated from 7 to 13 hours PI with PBS, 1% CD, or 1% CD-cholesterol. […]
Strain 60171, an ocular clinical isolate, was injected into the corneas of rabbits to determine the effectiveness of treatments with CD-cholesterol, CD, or PBS. As described above, the pathologic changes and erosion development were observed via SLE at 13 hours PI (FIG. 2B) whereas the number of surviving bacteria was determined at 14 hours PI.

α-toxin heptamer = α-toxin heptamer (Staphylococcus aureus, UniProt P09616); conditions: literature; cited from earlier work
Chain of α-toxin heptamer (P09616 27-319 limits assumed): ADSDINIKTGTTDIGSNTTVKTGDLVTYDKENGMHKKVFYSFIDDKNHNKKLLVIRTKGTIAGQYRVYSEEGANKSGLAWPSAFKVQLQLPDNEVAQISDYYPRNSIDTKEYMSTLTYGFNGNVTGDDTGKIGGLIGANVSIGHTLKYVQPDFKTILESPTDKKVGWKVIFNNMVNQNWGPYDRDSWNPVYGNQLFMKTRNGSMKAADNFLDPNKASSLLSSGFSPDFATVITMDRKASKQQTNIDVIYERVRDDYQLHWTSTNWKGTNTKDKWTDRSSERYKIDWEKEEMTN

[3] = 1% topical drops 7 to 13 hours PI (15 drops), 13 hours PI
[4] = 1% topical drops 7 to 13 hours PI, 13 hours PI
[5] = 1% topical drops 7 to 13 hours PI, 14 hours PI

T1 sequence (P09616 27-319 limits assumed): as above

Compound | inhibition of α-toxin activity (α-toxin [1]) | reduction in α-toxin hemolytic titer (α-toxin [2]) | average SLE score (S. aureus strain 8325-4; [3]) | corneal erosion diameter (S. aureus strain 8325-4; [4]) | number of surviving S. aureus (S. aureus strain 8325-4; [5]) | average SLE score (S. aureus strain 60171; [3]) | diameter of corneal epithelial erosions (S. aureus strain 60171; [4]) | bacteria in the corneas (S. aureus strain 60171; [5]) | binding to the pore of α-toxin heptamer (α-toxin heptamer)
C[C@]12CCC(=O)C=C1CC[C@@H]1[C@@H]2[C@@H](O)C[C@@]2(C)[C@H]1CC[C@]2(O)C(=O)CO [hydrocortisone] | weakly inhibited |  |  |  |  |  |  |  | 
methyl-β-cyclodextrin [CD] |  | twofold; also recorded: two-fold | 9.23±0.39 | 4.55±0.28 mm | 9.36×10^6±4.22×10^5 bacteria per cornea | 9.02±0.90 | 4.83±0.31 mm | 2.42×10^7±8.96×10^6 bacteria | bind weakly
